# Measured values taken from US9670212B2, “Inhibitors of PI3K-delta and methods of their use and manufacture” (Exelixis, Inc., priority 2010, dated 2017).
# Molecular target: PI3K delta (Homo sapiens (Human), UniProt O00329)
# Test: Luciferase-coupled chemiluminescence kinase assay (KinaseGlo, ATP consumption)
# Format: biochemical
# Protocol: Kinase activity and compound inhibition were investigated using one or more of the assay formats described below. The ATP concentrations used in the various assays were approximately equal to or less than the KM for each of the respective kinases. Dose-response experiments were performed using an intra-plate dilution scheme with 10 different inhibitor concentrations in a 384-well microtiter plate. […] Typically N should approximate unity. Curve fitting was performed using XLFit or ActivityBase. Luciferase-Coupled Chemiluminescence Assay Protocol
# Kinase activity is measured as the percent of ATP consumed following the kinase reaction using luciferase-luciferin-coupled chemiluminescence. […] Kinase reactions were initiated by combining test compounds, kinase, and ATP in a 20 μL volume (6 μL volume for 1536-well plate). The reaction mixture was incubated at ambient temperature for 2 h. Following the kinase reaction, a 20 μL (or 3 μL for 1536-well plate) aliquot of KinaseGlo (Promega) was added and the chemiluminescence signal measured using an EnVision plate reader (Perkin Elmer).
# Chain of PI3K delta (O00329 whole entry): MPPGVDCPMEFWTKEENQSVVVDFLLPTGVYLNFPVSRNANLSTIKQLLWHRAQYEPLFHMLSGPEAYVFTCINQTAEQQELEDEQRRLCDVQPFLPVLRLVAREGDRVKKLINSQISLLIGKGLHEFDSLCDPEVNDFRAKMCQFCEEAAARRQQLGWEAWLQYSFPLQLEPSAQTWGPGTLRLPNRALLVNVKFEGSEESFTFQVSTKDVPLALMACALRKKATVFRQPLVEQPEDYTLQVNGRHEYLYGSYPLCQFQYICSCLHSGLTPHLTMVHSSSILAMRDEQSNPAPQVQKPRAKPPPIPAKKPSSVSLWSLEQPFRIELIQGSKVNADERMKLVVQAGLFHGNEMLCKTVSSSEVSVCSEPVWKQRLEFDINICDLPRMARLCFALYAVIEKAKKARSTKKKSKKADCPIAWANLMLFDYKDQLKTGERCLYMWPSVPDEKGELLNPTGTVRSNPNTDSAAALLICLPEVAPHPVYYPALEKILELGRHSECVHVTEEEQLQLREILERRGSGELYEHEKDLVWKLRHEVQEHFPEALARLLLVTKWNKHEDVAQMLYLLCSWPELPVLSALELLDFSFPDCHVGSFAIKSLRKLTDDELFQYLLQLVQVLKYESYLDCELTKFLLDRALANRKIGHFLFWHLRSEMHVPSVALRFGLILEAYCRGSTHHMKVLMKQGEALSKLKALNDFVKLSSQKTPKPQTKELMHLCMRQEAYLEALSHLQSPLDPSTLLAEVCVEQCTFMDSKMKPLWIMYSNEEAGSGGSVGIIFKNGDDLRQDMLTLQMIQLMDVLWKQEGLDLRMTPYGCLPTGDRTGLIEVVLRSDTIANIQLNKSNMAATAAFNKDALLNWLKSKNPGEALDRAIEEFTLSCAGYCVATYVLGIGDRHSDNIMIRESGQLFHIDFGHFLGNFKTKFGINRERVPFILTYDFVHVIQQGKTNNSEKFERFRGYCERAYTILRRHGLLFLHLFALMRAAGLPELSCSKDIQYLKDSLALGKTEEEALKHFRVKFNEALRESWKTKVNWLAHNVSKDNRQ
# Chain of PI3K delta (P27986 whole entry partner): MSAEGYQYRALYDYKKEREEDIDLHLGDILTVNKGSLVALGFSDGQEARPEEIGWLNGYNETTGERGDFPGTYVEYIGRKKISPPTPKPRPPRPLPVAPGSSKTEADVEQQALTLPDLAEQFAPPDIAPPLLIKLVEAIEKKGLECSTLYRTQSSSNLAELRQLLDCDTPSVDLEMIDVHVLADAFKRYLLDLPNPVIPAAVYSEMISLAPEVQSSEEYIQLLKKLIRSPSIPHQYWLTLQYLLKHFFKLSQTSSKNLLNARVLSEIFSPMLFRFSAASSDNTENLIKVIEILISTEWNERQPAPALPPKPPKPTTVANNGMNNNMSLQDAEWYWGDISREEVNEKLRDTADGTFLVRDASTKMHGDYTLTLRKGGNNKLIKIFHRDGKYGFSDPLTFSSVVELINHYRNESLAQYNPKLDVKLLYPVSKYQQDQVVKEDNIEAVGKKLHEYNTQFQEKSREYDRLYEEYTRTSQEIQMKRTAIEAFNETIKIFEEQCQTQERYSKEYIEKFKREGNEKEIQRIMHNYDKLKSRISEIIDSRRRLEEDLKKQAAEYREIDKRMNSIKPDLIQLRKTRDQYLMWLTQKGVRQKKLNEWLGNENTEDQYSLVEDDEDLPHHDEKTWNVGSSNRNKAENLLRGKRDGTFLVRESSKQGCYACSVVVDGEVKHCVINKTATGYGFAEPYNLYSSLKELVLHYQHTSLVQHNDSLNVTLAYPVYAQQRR
row,IC50 [nM],SMILES
1,500 to 1500,"Cc1cccc2cc(CNC(=O)c3nccnc3N)c(N3CCC(NC(=O)Cn4ccnn4)C3)nc12 (stereo not drawn) [Compound 45, 3-amino-N-[(8-methyl-2-{3-[(1H-1,2,3-triazol-1-ylacetyl)amino]pyrrolidin-1-yl}quinolin-3-yl)methyl]pyrazine-2-carboxamide]"
2,250 to 500,"Cc1cccc2cc(CNC(=O)c3nccnc3N)c(N(Cc3cccnc3)Cc3cccnc3)nc12 [Compound 46, 3-amino-N-({2-[bis(pyridin-3-ylmethyl)amino]-8-methylquinolin-3-yl}methyl)pyrazine-2-carboxamide]"
3,500 to 1500,"Cc1cccc2cc(CNC(=O)c3nccnc3N)c(N(Cc3ccccn3)Cc3ccccn3)nc12 [Compound 47, 3-amino-N-({2-[bis(pyridin-2-ylmethyl)amino]-8-methylquinolin-3-yl}methyl)pyrazine-2-carboxamide]"
4,< 50,"Cc1cccc2cc(CNC(=O)c3nccnc3N)c(N(C)CCN(C)C(=O)Cn3cccn3)nc12 [Compound 49, 3-amino-N-{[8-methyl-2-(methyl{2-[methyl(1H-pyrazol-1-ylacetyl)amino]ethyl}amino)quinolin-3-yl]methyl}pyrazine-2-carboxamide]"
5,500 to 1500,"Cc1cccc2cc(CNC(=O)c3nccnc3N)c(CCCO)nc12 [Compound 50, 3-amino-N-{[2-(3-hydroxypropyl)-8-methylquinolin-3-yl]methyl}pyrazine-2-carboxamide]"
6,50 to 250,"Cc1cccc2cc(CNC(=O)c3nccnc3N)c(N(C)CCNC(=O)Cn3ccnn3)nc12 [Compound 51, 3-amino-N-{[8-methyl-2-(methyl{2-[(1H-1,2,3-triazol-1-ylacetyl)amino]ethyl}amino)quinolin-3-yl]methyl}pyrazine-2-carboxamide]"
7,< 50,"Cc1cccc2nc(CNC(=O)c3nccnc3N)c(-c3ccccc3CN(C)C)cc12 [Compound 52, 3-amino-N-[(3-{2-[(dimethylamino)methyl]phenyl}-5-methylquinolin-2-yl)methyl]pyrazine-2-carboxamide]"
8,500 to 1500,"Cc1cccc2cc(CNC(=O)c3nccnc3N)c(N3CCCN(C(=O)Cn4cnc5ccccc54)CC3)nc12 [Compound 53, 3-amino-N-({2-[4-(1H-benzimidazol-1-ylacetyl)-1,4-diazepan-1-yl]-8-methylquinolin-3-yl}methyl)pyrazine-2-carboxamide]"
9,500 to 1500,"Cc1cccc2cc(CNC(=O)c3nccnc3N)c(N3CCCN(C(=O)Cn4ccnc4)CC3)nc12 [Compound 54, 3-amino-N-({2-[4-(1H-imidazol-1-ylacetyl)-1,4-diazepan-1-yl]-8-methylquinolin-3-yl}methyl)pyrazine-2-carboxamide]"
10,500 to 1500,"Cc1cccc2cc(CNC(=O)c3nccnc3N)c(N3CCCN(C(=O)Cn4ccnc4C)CC3)nc12 [Compound 55, 3-amino-N-[(8-methyl-2-{4-[(2-methyl-1H-imidazol-1-yl)acetyl]-1,4-diazepan-1-yl}quinolin-3-yl)methyl]pyrazine-2-carboxamide]"
11,250 to 500,"CN(C)C(=O)c1ccccc1-c1cc2ccccc2nc1CNC(=O)c1nccnc1N [Compound 56, 3-amino-N-[(3-{2-[(dimethylamino)carbonyl]phenyl}quinolin-2-yl)methyl]pyrazine-2-carboxamide]"
12,500 to 1500,"Cc1cccc2cc(CNC(=O)c3nccnc3N)c(N3CCCN(Cc4cccn4C)CC3)nc12 [Compound 57, 3-amino-N-[(8-methyl-2-{4-[(1-methyl-1H-pyrrol-2-yl)methyl]-1,4-diazepan-1-yl}quinolin-3-yl)methyl]pyrazine-2-carboxamide]"
13,500 to 1500,"Cc1ccc(CN2CCCN(c3nc4c(C)cccc4cc3CNC(=O)c3nccnc3N)CC2)o1 [Compound 58, 3-amino-N-[(8-methyl-2-{4-[(5-methylfuran-2-yl)methyl]-1,4-diazepan-1-yl}quinolin-3-yl)methyl]pyrazine-2-carboxamide]"
14,50 to 250,"Nc1nccnc1C(=O)NCc1nc2ccccc2cc1-c1ccccc1CN1CCCCC1 [Compound 59, 3-amino-N-({3-[2-(piperidin-1-ylmethyl)phenyl]quinolin-2-yl}methyl)pyrazine-2-carboxamide]"
15,250 to 500,"Cc1cccc2cc(CNC(=O)c3nccnc3N)c(N3CCCN(C(=O)Cn4ccnn4)CC3)nc12 [Compound 60, 3-amino-N-({8-methyl-2-[4-(1H-1,2,3-triazol-1-ylacetyl)-1,4-diazepan-1-yl]quinolin-3-yl}methyl)pyrazine-2-carboxamide]"
16,500 to 1500,"Cc1cccc2cc(CNC(=O)c3nccnc3N)c(N3CCCN(C(=O)Cn4nccn4)CC3)nc12 [Compound 61, 3-amino-N-({8-methyl-2-[4-(2H-1,2,3-triazol-2-ylacetyl)-1,4-diazepan-1-yl]quinolin-3-yl}methyl)pyrazine-2-carboxamide]"
17,500 to 1500,"Cc1cccc2cc(CNC(=O)c3nccnc3N)c(N3CCCN(Cc4nccn4C)CC3)nc12 [Compound 62, 3-amino-N-[(8-methyl-2-{4-[(1-methyl-1H-imidazol-2-yl)methyl]-1,4-diazepan-1-yl}quinolin-3-yl)methyl]pyrazine-2-carboxamide]"

row,IC50 [nM],SMILES
1,50 to 250,"Cc1cccc2cc(CNC(=O)c3nccnc3N)c(N3CCCN(Cc4cncn4C)CC3)nc12 [Compound 63, 3-amino-N-[(8-methyl-2-{4-[(1-methyl-1H-imidazol-5-yl)methyl]-1,4-diazepan-1-yl}quinolin-3-yl)methyl]pyrazine-2-carboxamide]"
2,250 to 500,"Cc1cccc2cc(CNC(=O)c3nccnc3N)c(N3CCCN(Cc4cccnc4)CC3)nc12 [Compound 64, 3-amino-N-({8-methyl-2-[4-(pyridin-3-ylmethyl)-1,4-diazepan-1-yl]quinolin-3-yl}methyl)pyrazine-2-carboxamide]"
3,500 to 1500,"Cc1cccc2cc(CNC(=O)c3nccnc3N)c(N3CCCN(Cc4ccncc4)CC3)nc12 [Compound 65, 3-amino-N-({8-methyl-2-[4-(pyridin-4-ylmethyl)-1,4-diazepan-1-yl]quinolin-3-yl}methyl)pyrazine-2-carboxamide]"
4,500 to 1500,"Cc1cccc2cc(CNC(=O)c3nccnc3N)c(N3CCCN(CC(=O)N(C)C)CC3)nc12 [Compound 66, 3-amino-N-[(2-{4-[2-(dimethylamino)-2-oxoethyl]-1,4-diazepan-1-yl}-8-methylquinolin-3-yl)methyl]pyrazine-2-carboxamide]"
5,< 50,"CCCN1CCC[C@@H]1C(=O)N(C)CCN(C)c1nc2c(C)cccc2cc1CNC(=O)c1nccnc1N [Compound 67, 3-amino-N-{[8-methyl-2-(methyl{2-[methyl(1-propyl-D-prolyl)amino]ethyl}amino)quinolin-3-yl]methyl}pyrazine-2-carboxamide]"
6,50 to 250,"Cc1cccc2cc(CNC(=O)c3nccnc3N)c(N(C)CCN(C)Cc3ccccn3)nc12 [Compound 68, 3-amino-N-{[8-methyl-2-(methyl{2-[methyl(pyridin-2-ylmethyl)amino]ethyl}amino)quinolin-3-yl]methyl}pyrazine-2-carboxamide]"
7,250 to 500,"CN(C)Cc1cccc(-c2cc3ccccc3nc2CNC(=O)c2nccnc2N)c1 [Compound 69, 3-amino-N-[(3-{3-[(dimethylamino)methyl]phenyl}quinolin-2-yl)methyl]pyrazine-2-carboxamide]"
8,250 to 500,"Nc1nccnc1C(=O)NCc1nc2ccccc2cc1-c1ccccc1CN1CCOCC1 [Compound 70, 3-amino-N-({3-[2-(morpholin-4-ylmethyl)phenyl]quinolin-2-yl}methyl)pyrazine-2-carboxamide]"
9,500 to 1500,"Nc1nccnc1C(=O)NCc1nc2ccccc2cc1-c1ccc(CN2CCOCC2)cc1 [Compound 71, 3-amino-N-({3-[4-(morpholin-4-ylmethyl)phenyl]quinolin-2-yl}methyl)pyrazine-2-carboxamide]"
10,500 to 1500,"Nc1nccnc1C(=O)NCc1nc2ccccc2cc1-c1cccc(CN2CCOCC2)c1 [Compound 72, 3-amino-N-({3-[3-(morpholin-4-ylmethyl)phenyl]quinolin-2-yl}methyl)pyrazine-2-carboxamide]"
11,< 50,"Cc1cccc2cc(CNC(=O)c3nccnc3N)c(N(C)CCN(C)C(=O)[C@H]3CCCN3C(C)C)nc12 [Compound 73, 3-amino-N-({8-methyl-2-[methyl(2-{methyl[1-(1-methylethyl)-D-prolyl]amino}ethyl)amino]quinolin-3-yl}methyl)pyrazine-2-carboxamide]"
12,500 to 1500,"Cc1ccccc1-c1cc2ccccc2nc1CNC(=O)c1cnc(N)nc1 [Compound 74, 2-amino-N-{[3-(2-methylphenyl)quinolin-2-yl]methyl}pyrimidine-5-carboxamide]"
13,250 to 500,"Cc1ccccc1-c1cc2ccccc2nc1C(C)NC(=O)c1nccnc1N (stereo not drawn) [Compound 75, 3-amino-N-{1-[3-(2-methylphenyl)quinolin-2-yl]ethyl}pyrazine-2-carboxamide]"
14,50 to 250,"CNC(=O)CN(C)CCN(C)c1nc2c(C)cccc2cc1CNC(=O)c1nccnc1N [Compound 76, 3-amino-N-({8-methyl-2-[methyl(2-{methyl[2-(methylamino)-2-oxoethyl]amino}ethyl)amino]quinolin-3-yl}methyl)pyrazine-2-carboxamide]"
15,50 to 250,"Cc1cccc2cc(CNC(=O)c3nccnc3N)c(N(C)CCN(C)CC(=O)N3CCOCC3)nc12 [Compound 77, 3-amino-N-{[8-methyl-2-(methyl{2-[methyl(2-morpholin-4-yl-2-oxoethyl)amino]ethyl}amino)quinolin-3-yl]methyl}pyrazine-2-carboxamide]"
16,500 to 1500,"Cc1cccc2cc(CNC(=O)c3nccnc3N)c(N(C)CCN(C)C(=O)c3cnccn3)nc12 [Compound 78, 3-amino-N-{[8-methyl-2-(methyl{2-[methyl(pyrazin-2-ylcarbonyl)amino]ethyl}amino)quinolin-3-yl]methyl}pyrazine-2-carboxamide]"
